This test concerns 485176-168-R4-J1-PDC spheroids with HUVEC/MSC, viability. Description: Anticancer human tumor 485176-168-R4-J1-PDC patient-derived pancreatic adenocarcinoma cell line growth inhibition [GQUAD]. The settings on record: for viability, T/C: stronger effect = lower value. An excerpt:
DNA G-quadruplex Stabilizer Agents in Combinations in Complex Spheroids
A high-throughput screen of multi-cell type tumor spheroids was designed to identify active combinations of DNA G-quadruplex stabilizer agents and targeted small molecules. Complex spheroids include a stromal component modeled by human endothelial cells (HUVEC) and fibroblasts modeled by human mesenchymal stem cells (MSCs). The concentration ranges selected for each drug and investigational agent were based upon clinically achievable concentrations if the clinical Cmax of the agent was known.
Compounds. The drugs and investigational agents: pidnarulex (CX-5461; NSC782164), APTO-253 (NSC789042), BRACO-19 (NSC847499), peposertib (NSC802822), ceralasertib (NSC780249), elimusertib (NSC800525), camonsertib (NSC841442), AZD-1390 (NSC803789), olaparib (NSC753686), talazoparib (NSC767125), ART-558 (NSC835418), sotorasib (NSC818433), MRTX-1133 (NSC836407), SN-38 (NSC673596), topotecan (NSC609699), etoposide (NSC141540), doxorubicin (NSC123127), gemcitabine (NSC613327), 5-fluorouracil (NSC19893), paclitaxel (NSC125973), vemurafenib (NSC761431), panobinostat (NSC761190), R-306465 (JNJ-16241199; NSC773264), adavosertib (NSC754352), TP-3654 (NSC805149), carboplatin (NSC241240), KSQ-4279 (NSC840948), and staurosporine (NSC755774) were obtained from the National Cancer Institute (NCI) Developmental Therapeutics Program Chemical Repository (34). The FDA-approved anticancer drug set is available from the NCI Developmental Therapeutics Program. […] The stock solutions were prepared in dimethyl sulfoxide (DMSO, Sigma-Aldrich, St. Louis, MO, cat. D2650) at 800-fold the tested concentration and stored at -70 degrees C prior to their use. All drugs and investigational agents were tested over a range starting from a high concentration at or near the clinical Cmax and decreasing in half-log increments. If the clinical Cmax for an agent had not been determined, the highest concentration tested was 10 microM.
2.3 Cell Culture. All cells were maintained in an incubator at 37 degrees C and 5% CO2 with 95% humidity. The PDC lines were cultured according to standard operating procedures established by the NCI PDMR. All PDCs were thawed and cultured in Matrigel-coated flasks prepared with a working solution of 1X Ham's F-12 nutrient mix, without supplementation (Invitrogen, cat. 11765054), 100 U/mL penicillin-streptomycin (Invitrogen, cat. 15140122), and 2.5% Matrigel (Corning Inc., cat. 354248) for the first three passages. The 857933-349-R-J2-PDC line was cultured in 6C/Colon 1B media, which includes advanced DMEM/F-12 (Thermo Fisher Scientific, cat. 12634028), 10 mM HEPES (Thermo Fisher Scientific, cat. 15630080), 1X GlutaMAX supplement (Thermo Fisher Scientific, cat. 35050061), 0.1 mg/mL primocin (InvivoGen, cat. ant-pm-2), 10% defined fetal bovine serum, heat inactivated (HyClone Laboratories Inc., cat. SH30070.03HI), 50% L-WRN conditioned media (ATCC, cat. CRL-3276), 1.25 mM N-Acetyl-L-cysteine (Sigma-Aldrich, cat. A9165), 10 mM nicotinamide (Sigma-Aldrich, cat. N0636), 1X B-27 supplement (Thermo Fisher Scientific, cat. 17504044), 1X N-2 supplement (Thermo Fisher Scientific, cat. 17502048), 10 microM Y-27632 dihydrochloride (Tocris Bioscience, cat. 1254), and 50 ng/mL human EGF recombinant protein (Thermo Fisher Scientific, cat. PHG0311). The 485176-168-R4-J1-PDC line was cultured in Panc media, which includes all 6C/Colon 1B media components plus 100 ng/mL human FGF-10 (Thermo Fisher Scientific, cat. 100-26), 500 nM SB-431542 (Selleckchem, cat. S1067), and gastrin (Tocris, cat. 3006).
[…]

Setting [1] is: curve of first compound, second compound 0.0316 µM.
Where [2] appears, read: curve of first compound, second compound 0.1 µM.
Setting [3] is: curve of first compound, second compound 0.316 µM.
[4] abbreviates: curve of first compound, second compound 1 µM.
Setting [5] is: curve of first compound, second compound 3.16 µM.
[6] abbreviates: curve of first compound, second compound 10 µM.
Setting [7] is: second compound 0.0316 µM, first compound 0.0316 µM.
[8] abbreviates: second compound 0.0316 µM, first compound 0.1 µM.
Where [9] appears, read: second compound 0.0316 µM, first compound 0.316 µM.
The mark [10] stands for this setting: second compound 0.0316 µM, first compound 1 µM.
Where [11] appears, read: second compound 0.0316 µM, first compound 3.16 µM.
Where [12] appears, read: second compound 0.0316 µM, first compound 10 µM.
The mark [13] stands for this setting: second compound 0.1 µM, first compound 0.0316 µM.
Setting [14] is: second compound 0.1 µM, first compound 0.1 µM.
The mark [15] stands for this setting: second compound 0.1 µM, first compound 0.316 µM.
[16] abbreviates: second compound 0.1 µM, first compound 1 µM.
The mark [17] stands for this setting: second compound 0.1 µM, first compound 3.16 µM.
[18] abbreviates: second compound 0.1 µM, first compound 10 µM.
Setting [19] is: second compound 0.316 µM, first compound 0.0316 µM.
Setting [20] is: second compound 0.316 µM, first compound 0.1 µM.
The mark [21] stands for this setting: second compound 0.316 µM, first compound 0.316 µM.
Setting [22] is: second compound 0.316 µM, first compound 1 µM.
Setting [23] is: second compound 0.316 µM, first compound 3.16 µM.
Where [24] appears, read: second compound 0.316 µM, first compound 10 µM.
Where [25] appears, read: second compound 1 µM, first compound 0.0316 µM.
The mark [26] stands for this setting: second compound 1 µM, first compound 0.1 µM.
Setting [27] is: second compound 1 µM, first compound 0.316 µM.
The mark [28] stands for this setting: second compound 1 µM, first compound 1 µM.
Setting [29] is: second compound 1 µM, first compound 3.16 µM.
The mark [30] stands for this setting: second compound 1 µM, first compound 10 µM.
[31] abbreviates: second compound 3.16 µM, first compound 0.0316 µM.
[32] abbreviates: second compound 3.16 µM, first compound 0.1 µM.
The mark [33] stands for this setting: second compound 3.16 µM, first compound 0.316 µM.
[34] abbreviates: second compound 3.16 µM, first compound 1 µM.
[35] abbreviates: second compound 3.16 µM, first compound 3.16 µM.
The mark [36] stands for this setting: second compound 3.16 µM, first compound 10 µM.
The mark [37] stands for this setting: second compound 10 µM, first compound 0.0316 µM.
Where [38] appears, read: second compound 10 µM, first compound 0.1 µM.
[39] abbreviates: second compound 10 µM, first compound 0.316 µM.
Setting [40] is: second compound 10 µM, first compound 1 µM.
[41] abbreviates: second compound 10 µM, first compound 3.16 µM.
[42] abbreviates: second compound 10 µM, first compound 10 µM.

Where “and” joins values, the source holds several entries; their conditions need not be identical. Equal entries are not always repeated. Bounds are passed on as bounds.
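Note: spheroids exposed to compounds for seven days before readout.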
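Throughout, for viability, T/C: percent viability relative to DMSO vehicle control wells as 100%.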

One may read the IC50 as the point on the concentration scale where inhibition reaches its midpoint. By viability, T/C is commonly meant the result in the treated group divided by that in the control group, in per cent. With `Cc1cccc(N(C)C(=O)C2C(O)CCN2c2nc(C)cc(C(F)(F)F)c2C#N)c1` (stereo not given) + Cc1[nH]c2ccc(F)cc2c1-c1nc2c3cccnc3c3ncccc3c2[nH]1, the IC50 is above 10000 nM under setting [1]; above 10000 nM under setting [2]; above 10000 nM under setting [3]; above 10000 nM under setting [4]; above 10000 nM under setting [5]; above 10000 nM under setting [6]. In addition, the viability, T/C was 102% under setting [7]; 95.1% under setting [8]; 99.2% under setting [9]; 89% under setting [10]; 94.1% under setting [11]; 99.2% under setting [12]. Further, the viability, T/C is, setting by setting: under setting [13], 85.9%; under setting [14], 95.4%; under setting [15], 93.1%; under setting [16], 99%; under setting [17], 109%; under setting [18], 114%. Further, the viability, T/C runs as follows: under setting [19], 93.1%; under setting [20], 108%; under setting [21], 103%; under setting [22], 92.2%; under setting [23], 93.7%; under setting [24], 96.7%. Moreover, the viability, T/C under setting [25] is 87%; the viability, T/C under setting [26] was 100%; the viability, T/C under setting [27] is 84.6%; the viability, T/C under setting [28] was 85.3%; the viability, T/C under setting [29] was 99.8%; the viability, T/C under setting [30] is 94.1%. Also, the viability, T/C by setting is: under setting [31], 95.5%; under setting [32], 97.1%; under setting [33], 84.5%; under setting [34], 89.2%; under setting [35], 95.1%; under setting [36], 92.1%. The viability, T/C runs as follows: under setting [37], 80.3%; under setting [38], 92%; under setting [39], 80.1%; under setting [40], 90%; under setting [41], 78.2%; under setting [42], 99.1%.

Take `C=CCn1c(=O)c2cnc(Nc3ccc(N4CCN(C)CC4)cc3)nc2n1-c1cccc(C(C)(C)O)n1` + Cc1cnc(CNC(=O)c2c(=O)c3ccc(N4CCCN(C)CC4)nc3n3c2sc2ccccc23)cn1: the IC50 was 233 nM under setting [1]; 165 nM under setting [2]; 123 nM under setting [3]; 36.5 nM under setting [4]; below 31.6 nM under setting [5]; below 31.6 nM under setting [6]. In addition, the viability, T/C was 81.7% under setting [7]; 64.8% under setting [8]; 47.2% under setting [9]; 11.5% under setting [10]; 7.79% under setting [11]; 3.94% under setting [12]. Further, the viability, T/C runs as follows: under setting [13], 69.3%; under setting [14], 70.4%; under setting [15], 24.1%; under setting [16], 10.6%; under setting [17], 6.45%; under setting [18], 3.77%. The viability, T/C under setting [19] was 64%; the viability, T/C under setting [20] is 55.9%; the viability, T/C under setting [21] was 25%; the viability, T/C under setting [22] is 9.59%; the viability, T/C under setting [23] is 6.42%; the viability, T/C under setting [24] is 3.31%. Also, the viability, T/C under setting [25] is 52%; the viability, T/C under setting [26] is 36.4%; the viability, T/C under setting [27] is 22.1%; the viability, T/C under setting [28] is 10.2%; the viability, T/C under setting [29] is 5.94%; the viability, T/C under setting [30] was 4.18%. The viability, T/C is, setting by setting: under setting [31], 47.6%; under setting [32], 40.1%; under setting [33], 18.2%; under setting [34], 9.87%; under setting [35], 4.56%; under setting [36], 5.42%. Also, the viability, T/C runs as follows: under setting [37], 34.4%; under setting [38], 37.5%; under setting [39], 24.6%; under setting [40], 10.6%; under setting [41], 0.49%; under setting [42], 0.25%.

For `CC1COCCN1c1cc(-c2ccnn2C)c2ccnc(-c3ccn[nH]3)c2n1` (stereo not given), the viability, T/C was 76.2% and 71.6% and 87.6% (compound 0.0316 µM); 39.2% and 47.5% and 37.8% (compound 0.1 µM); 18.1% and 14.2% and 15.9% (compound 0.316 µM); 10.4% and 10.2% and 9.3% (compound 1 µM); 11.3% and 9.69% and 10% (compound 3.16 µM); 11.9% and 12.4% and 10.7% (compound 10 µM). Further, where the note is “curve of compound”, the IC50 was 71.6 nM and 88.8 nM and 75.5 nM.

On to `C=CCn1c(=O)c2cnc(Nc3ccc(N4CCN(C)CC4)cc3)nc2n1-c1cccc(C(C)(C)O)n1`, for which the viability, T/C is 101% and 96.5% and 125% (compound 0.0316 µM); 85.2% and 103% and 79.7% (compound 0.1 µM); 58% and 60.3% and 58.8% (compound 0.316 µM); 20.7% and 23% and 14.2% (compound 1 µM); 7.67% and 7.8% and 5.95% (compound 3.16 µM); 5.42% and 4.01% and 4.35% (compound 10 µM). Further, the 50% inhibitory concentration (IC50) (curve of compound) is 387 nM and 453 nM and 300 nM.

Turning to `Cc1cccc(N(C)C(=O)C2C(O)CCN2c2nc(C)cc(C(F)(F)F)c2C#N)c1` (stereo not given), the viability, T/C was 103% and 99% and 105% (compound 0.0316 µM); 85.8% and 79.2% and 87.1% (compound 0.1 µM); 84.3% and 101% and 97.6% (compound 0.316 µM); 85.8% and 105% and 76.4% (compound 1 µM); 97.7% and 103% and 97.5% (compound 3.16 µM); 95.4% and 91.5% and 89.9% (compound 10 µM). The IC50 (curve of compound) is above 10000 nM.
